Test results from publication PMC8443589, “Modelling human liver fibrosis in the context of non-alcoholic steatohepatitis using a microphysiological system” (Communications Biology, 2021).
Values joined by “and” are separate entries in the source; they are usually repeats but may differ in a detail not shown here. Equal entries are not always repeated.

Assays:
[1] = clinical dose, cited from earlier work; for Cmax: read-out: Plasma Cmax
[2] = tested on: NASH liver microtissues (PHH, KC and HSC co-cultures); test: Metabolic turnover (T1/2) in NASH liver microtissues in the MPS platform, LC-MS/MS; type: in vitro ADME, human; settings: 1 µM, 48 hours
Protocol: (§1) Despite many on-going clinical trials, there is still no approved treatment for NASH, but emerging data provide confidence that NASH is a pharmacologically responsive disease. […] First, we set out to determine an optimal dosing strategy for each of the treatments based on an assessment of their physicochemical properties and pharmacokinetic behaviour within the MPS device (Table 1). Non-specific binding to the MPS device was determined after a 72 h incubation with each candidate drug at 1 μM (Table 1). Both candidate drugs were calculated to have less than 0.1% loss as a consequence of non-specific binding to the MPS device (Table 1). […] Because the hepatocytes within the MPS device are metabolically competent, we evaluated the half-life for each candidate drug in NASH microtissues.
(§2) To determine the metabolic turnover of obeticholic acid and elafibranor in the MPS platform, both compounds were incubated with liver microtissues for 48 h starting at 1 µM and media samples taken at regular intervals (AdooQ Bioscience, UK). The presence of each compound in the cell culture medium was quantified by liquid chromatography-tandem mass spectrometry (LC-MS/MS). Samples were separated using a Waters Acquity UPLC system with an ACE Excel C18-AR column and analysed on a Waters TQ-S Micro mass spectrometer against quantitative standard curves. Both compounds were also assessed for protein binding in HEP-Fat media using rapid equilibrium dialysis (RED) and quantified using the same LC-MS/MS methodology.
(§3) Supplemental Figure 5 – Obeticholic acid and Elafibranor are metabolised in the NASH MPS model.
(§4) The metabolism of a) Elafibranor and b) Obeticholic acid and was assessed in PHH, KC and HSC co-cultures grown in the liver MPS platform for 7 days. Following a double media exchange the compounds were incubated with the microtissues at a starting concentration of 1 µM and media samples taken at regular intervals across 48 hours. Media samples were assessed for the concentration of compound by quantitative LC-MS.
(§5) (1 picture or pasted object on this page, not shown here)

[3] = as above; type: in vitro ADME, human; settings: human, NASH liver microtissues grown 7 days, medium sampled across 48 h
Protocol: as §1, §2, §3, §4, §5

[4] = tested on: liver MPS NASH model (PHH, KC and HSC co-cultures, high fat); test: Fibrosis gene expression (Human Fibrosis RT2 Profiler PCR Arrays) in liver MPS NASH model dosed with OCA or ELF; type: cell-based; settings: 10 days, individual cultures
Protocol: Fig. 3 Obeticholic acid and Elafibranor both modulate inflammatory and fibrosis phenotype in liver MPS NASH model and phenotype can additionally be reversed with dietary changes. PHH, KC and HSC co-cultures were cultured in the MPS platform under high fat conditions and dosed with varying concentrations of Obeticholic acid (OCA) and Elafibranor (ELF) QD or vehicle control (control) for 10 days, following an initial 4-day pre-culture phase. a The secreted cytokine profile from liver microtissues was compared by Luminex to determine the effects of each compound on the inflammatory profile of the liver with samples analysed at day 8 and 14 of the culture. Data were normalised by Z-transformation to allow comparison of all analytes and presented as a heatmap. b The expression of fibrosis-associated genes was analysed in total RNA from control, OCA and ELF treated liver microtissues (highest concentration for each compound) using Human Fibrosis RT2 Profiler PCR Arrays. Gene expression changes are expressed as a fold change over control. c Liver microtissues were stained for collagen-type I, α-SMA, nuclei (DAPI - blue), phalloidin (green) and imaged by confocal microscopy. Representative images are shown and scale bars 200 µm. d Staining of microtissue was quantified by measuring total fluorescence intensity throughout individual microtissues, each data point represents an average of all the microtissues imaged within an MPS scaffold (min 8, max 20 microtissues). e PHH, KC and HSC co-cultures were cultured in the MPS platform under high fat or lean conditions for 30 days. Cultures either remained in the same type of media throughout or were switched at day 15 from fat media to lean media (Fat -> Lean). Cell culture medium samples were analysed for the presence of IL-6, f MCP-1, g TIMP-1, which were measured by ELISA. h Microtissues were stained with Oil-Red O to determine fat loading during culture period, total stain was quantified by absorbance at 510 nm. All datapoints shown, either as box-whisker plots highlighting mean and min-max or with error bars highlighting means ± SD. All data from a minimum of three independent cultures; statistical comparisons made to control samples unless other comparison shown.
Total RNA was extracted from liver microtissue-containing scaffolds using TRIzol® Reagent (Ambion, USA) and a chloroform phase separation. RNA was precipitated from aqueous phase samples using 100% isopropanol and RNA pellets were resuspended in dH2O. Samples were analysed by both QPCR and RNAseq. For QPCR, reverse transcription and PCR were performed using RT2 First Strand Kit and Human Fibrosis RT² Profiler™ PCR Arrays (PAHS-120Z) (Qiagen, UK), with samples analysed on a Quantstudio 6 Real-Time PCR System (Applied Biosystems, UK). Ct values from samples were compared and normalised to house-keeping gene expression. The fold-change in each transcript represented on the array plate was determined using RT2 Profiler™ PCR Array Data Analysis (v. 3.5) Web Portal (Qiagen, UK).
Liver microtissues were cultured for 4 days in HEP-FAT medium, before dosing with obeticholic acid or elafibranor. Both compounds were dissolved in DMSO, diluted in cell culture medium (final DMSO concentration ≤1%) and added to microtissues during a full medium change every two days and in addition on the intervening days compounds were spiked into the media to increase drug concentration back to desired concentrations. Cultures were maintained in the presence of the compound, for a total of 10 days in the presence or absence of TGFβ.

CSc1ccc(C(=O)/C=C/c2cc(C)c(OC(C)(C)C(=O)O)c(C)c2)cc1 [Elafibranor]
Cmax [1]: 13 µM | metabolism in the NASH MPS model [2]: metabolised | half-life at 1 µM [3]: 16 h | CCL2 relative gene expression compared to GAPDH housekeeping gene ([4]; 65.0 uM ELF, listed as ELF): 3.92e-9 and 2.6e-9 and 6.31e-9 | CCL3 relative gene expression compared to GAPDH housekeeping gene ([4]; 65.0 uM ELF, listed as ELF): 3.39e-10 and 1.55e-10 and 3.45e-10 | CCL11 relative gene expression compared to GAPDH housekeeping gene ([4]; 65.0 uM ELF, listed as ELF): 4.99e-10 and 6.3e-10 and 6.52e-10 | CEBPB relative gene expression compared to GAPDH housekeeping gene ([4]; 65.0 uM ELF, listed as ELF): 1.2e-8 and 1.1e-8 and 2.65e-8 | CXCR4 relative gene expression compared to GAPDH housekeeping gene ([4]; 65.0 uM ELF, listed as ELF): 1.13e-9 and 7.47e-10 and 1.7e-9 | DCN relative gene expression compared to GAPDH housekeeping gene ([4]; 65.0 uM ELF, listed as ELF): 2.4e-7 and 1.65e-7 and 3.13e-7 | HGF relative gene expression compared to GAPDH housekeeping gene ([4]; 65.0 uM ELF, listed as ELF): 6.26e-10 and 2.45e-10 and 6.68e-10 | MMP1 relative gene expression compared to GAPDH housekeeping gene ([4]; 65.0 uM ELF, listed as ELF): 2.95e-9 and 8.23e-10 and 3.25e-9 | MMP9 relative gene expression compared to GAPDH housekeeping gene ([4]; 65.0 uM ELF, listed as ELF): 1.04e-8 and 2.47e-9 and 9.28e-9

CC[C@H]1[C@@H](O)[C@@H]2[C@H](CC[C@]3(C)[C@@H]([C@H](C)CCC(=O)O)CC[C@@H]23)[C@@]2(C)CC[C@@H](O)C[C@@H]12 [Obeticholic acid]
liver Cmax [1]: 12.5 µM | Cmax [1]: 0.5 µM | metabolism in the NASH MPS model [2]: metabolised | half-life at 1 µM [3]: 12 h | CCL2 relative gene expression compared to GAPDH housekeeping gene ([4]; 12.5 uM OCA, listed as OCA): 5.71e-9 and 9.72e-9 and 5e-9 | CCL3 relative gene expression compared to GAPDH housekeeping gene ([4]; 12.5 uM OCA, listed as OCA): 1.11e-9 and 5.96e-10 and 3.11e-10 | CCL11 relative gene expression compared to GAPDH housekeeping gene ([4]; 12.5 uM OCA, listed as OCA): 3.39e-10 and 4.66e-10 and 1.94e-10 | CEBPB relative gene expression compared to GAPDH housekeeping gene ([4]; 12.5 uM OCA, listed as OCA): 3e-8 and 1.33e-8 and 1.62e-8 | CXCR4 relative gene expression compared to GAPDH housekeeping gene ([4]; 12.5 uM OCA, listed as OCA): 2.04e-9 and 8.2e-10 and 6.3e-10 | DCN relative gene expression compared to GAPDH housekeeping gene ([4]; 12.5 uM OCA, listed as OCA): 3.44e-7 and 1.39e-7 and 1.03e-7 | HGF relative gene expression compared to GAPDH housekeeping gene ([4]; 12.5 uM OCA, listed as OCA): 1.68e-9 and 5.3e-10 and 3.89e-10 | MMP1 relative gene expression compared to GAPDH housekeeping gene ([4]; 12.5 uM OCA, listed as OCA): 9.31e-10 and 1.58e-9 and 2.05e-9 | MMP9 relative gene expression compared to GAPDH housekeeping gene ([4]; 12.5 uM OCA, listed as OCA): 1.47e-8 and 5.79e-9 and 3e-9
